Key:
Format in all cases: functional, cell-based
[1] = tested on: NCI-H2107; test: SANGER: Inhibition of human NCI-H2107 cell growth in a cell viability assay.
[2] = tested on: NCI-H716; test: cells; conditions: Homo sapiens;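 further: growth inhibition of human NCI-H716 cells, measured by a cell viability assay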
Description: SANGER: Inhibition of human NCI-H716 cell growth in a cell viability assay.

[3] = tested on: NCI-H2227; test: cells; conditions: Homo sapiens;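 further: growth inhibition of the human cell line, read out with a cell viability assay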
Description: SANGER: Inhibition of human NCI-H2227 cell growth in a cell viability assay.

[4] = tested on: LOUCY; test: cells; conditions: Homo sapiens;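 further: growth inhibition of human LOUCY cells, read out with a cell viability assay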
Description: SANGER: Inhibition of human LOUCY cell growth in a cell viability assay.

[5] = tested on: IM-9; test: SANGER: Inhibition of human IM-9 cell growth in a cell viability assay.
[6] = tested on: YT; test: cells; conditions: Homo sapiens
Description: SANGER: Inhibition of human YT cell growth in a cell viability assay.

[7] = tested on: NCI-H128; test: SANGER: Inhibition of human NCI-H128 cell growth in a cell viability assay.
[8] = tested on: ECC12; test: cells; conditions: Homo sapiens
Description: SANGER: Inhibition of human ECC12 cell growth in a cell viability assay.

[9] = tested on: LU-165; test: cells; conditions: Homo sapiens
Description: SANGER: Inhibition of human LU-165 cell growth in a cell viability assay.

[10] = tested on: EHEB; test: cells; conditions: Homo sapiens;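 further: growth inhibition of human EHEB cells, read out with a cell viability assay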
Description: SANGER: Inhibition of human EHEB cell growth in a cell viability assay.

[11] = tested on: EW-12; test: SANGER: Inhibition of human EW-12 cell growth in a cell viability assay.
[12] = tested on: DG-75; test: cells; conditions: Homo sapiens;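 further: growth inhibition of DG-75 cells, read out with a cell viability assay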
Description: SANGER: Inhibition of human DG-75 cell growth in a cell viability assay.

[13] = tested on: NCI-H322M; test: cells; conditions: Homo sapiens;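 further: cell viability assay measuring inhibition of growth of human NCI-H322M cells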
Description: SANGER: Inhibition of human NCI-H322M cell growth in a cell viability assay.

[14] = tested on: TUR; test: cells; conditions: Homo sapiens;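 further: growth inhibition of human TUR cells, read out with a cell viability assay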
Description: SANGER: Inhibition of human TUR cell growth in a cell viability assay.

[15] = tested on: THP-1; test: cells; conditions: Homo sapiens;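 further: growth inhibition of THP-1 cells, read out via a cell viability assay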
Description: SANGER: Inhibition of human THP-1 cell growth in a cell viability assay.

[16] = tested on: OPM-2; test: cells; conditions: Homo sapiens;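 further: growth of OPM-2 cells measured with a viability assay, IC50 for suppression of proliferation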
Description: SANGER: Inhibition of human OPM-2 cell growth in a cell viability assay.

[17] = tested on: CPC-N; test: cells; conditions: Homo sapiens;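 further: growth inhibition of CPC-N cells, with a cell viability assay as the readout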
Description: SANGER: Inhibition of human CPC-N cell growth in a cell viability assay.

[18] = tested on: SU-DHL-1; test: SANGER: Inhibition of human SU-DHL-1 cell growth in a cell viability assay.
[19] = tested on: GDM-1; test: cells; conditions: Homo sapiens;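 further: cell viability readout used to measure growth inhibition of human GDM-1 cells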
Description: SANGER: Inhibition of human GDM-1 cell growth in a cell viability assay.

[20] = tested on: SKM-1; test: SANGER: Inhibition of human SKM-1 cell growth in a cell viability assay.
[21] = tested on: JIYOYE; test: cells; conditions: Homo sapiens
Description: SANGER: Inhibition of human JiyoyeP-2003 cell growth in a cell viability assay.

[22] = tested on: MDA-MB-134-VI; test: cells; conditions: Homo sapiens
Description: SANGER: Inhibition of human MDA-MB-134-VI cell growth in a cell viability assay.

[23] = tested on: COR-L279; test: SANGER: Inhibition of human COR-L279 cell growth in a cell viability assay.
[24] = tested on: HCC1599; test: cells; conditions: Homo sapiens;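 further: growth inhibition of HCC1599 cells, read out in a cell viability assay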
Description: SANGER: Inhibition of human HCC1599 cell growth in a cell viability assay.

[25] = tested on: NCI-H187; test: cells; conditions: Homo sapiens;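 further: growth inhibition of NCI-H187 cells, read out as cell viability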
Description: SANGER: Inhibition of human NCI-H187 cell growth in a cell viability assay.

Work on CS(=O)(=O)CCNCc1ccc(-c2ccc3ncnc(Nc4ccc(OCc5cccc(F)c5)c(Cl)c4)c3c2)o1 [LAPATINIB] yielded an IC50 [1] of over 2 µM, an IC50 [2] of over 2 µM and an IC50 [3] of over 2 µM. The IC50 [4] was over 2 µM, the IC50 [5] was over 2 µM and the IC50 [6] was over 2 µM. It also gave an IC50 [7] of over 2 µM, an IC50 [8] of 0.0923 µM and an IC50 [9] of over 2 µM. It also gave an IC50 [10] of over 2 µM, an IC50 [11] of over 2 µM and an IC50 [12] of over 2 µM. The IC50 [13] was over 2 µM, the IC50 [14] was over 2 µM and the IC50 [15] was over 2 µM. For the same compound, the IC50 [16] was over 2 µM, the IC50 [17] was over 2 µM and the IC50 [18] was over 2 µM. For the same compound, the IC50 [19] was over 2 µM, the IC50 [20] was over 2 µM and the IC50 [21] was over 2 µM. For the same compound, the IC50 [22] was over 2 µM, the IC50 [23] was over 2 µM and the IC50 [24] was over 2 µM. The IC50 [25] was over 2 µM.
Work on O=C(/C=C/c1ccccc1)NC(NC(=S)Nc1cccc2cccnc12)C(Cl)(Cl)Cl (stereo not drawn) [SALUBRINAL] yielded an IC50 [1] of over 16 µM, an IC50 [2] of over 16 µM and an IC50 [3] of over 16 µM. It also gave an IC50 [4] of over 16 µM, an IC50 [5] of over 16 µM and an IC50 [6] of over 16 µM. It also gave an IC50 [7] of over 16 µM, an IC50 [8] of over 16 µM and an IC50 [9] of over 16 µM. It also gave an IC50 [11] of over 16 µM, an IC50 [12] of over 16 µM and an IC50 [13] of over 16 µM. For the same compound, the IC50 [14] was over 16 µM, the IC50 [15] was over 16 µM and the IC50 [16] was over 16 µM. The IC50 [17] was over 16 µM, the IC50 [18] was over 16 µM and the IC50 [19] was over 16 µM. For the same compound, the IC50 [20] was over 16 µM, the IC50 [21] was over 16 µM and the IC50 [22] was over 16 µM. The IC50 [23] was over 16 µM, the IC50 [24] was 12.1 µM and the IC50 [25] was over 16 µM.
For CNC(=O)c1cc(Oc2ccc(NC(=O)Nc3ccc(Cl)c(C(F)(F)F)c3)cc2)ccn1 [SORAFENIB], the IC50 [1] was over 4 µM, the IC50 [2] was over 4 µM and the IC50 [3] was over 4 µM. The IC50 [4] was over 4 µM, the IC50 [5] was over 4 µM and the IC50 [6] was over 4 µM. The IC50 [7] was over 4 µM, the IC50 [8] was over 4 µM and the IC50 [9] was over 4 µM. The IC50 [11] was over 4 µM, the IC50 [12] was over 4 µM and the IC50 [13] was over 4 µM. For the same compound, the IC50 [14] was over 4 µM, the IC50 [15] was over 4 µM and the IC50 [16] was over 4 µM. The IC50 [17] was over 4 µM, the IC50 [18] was over 4 µM and the IC50 [19] was 0.907 µM. The IC50 [20] was over 4 µM, the IC50 [21] was over 4 µM and the IC50 [22] was over 4 µM. The IC50 [23] was over 4 µM, the IC50 [24] was over 4 µM and the IC50 [25] was over 4 µM.

— ChEMBL document CHEMBL1201861, “Genomics of Drug Sensitity in Cancer screening data, Wellcome Trust Sanger Institute”
